Assay results reported in patent US10689327B2, “Prodrug amino acid derivative” (TAISHO PHARMACEUTICALS CO., LTD., priority 2016, dated 2020).

Tests used:
[1] = target: human metabotropic glutamate receptor mGluR3 (Homo sapiens (Human), UniProt Q14832); assay: [35S]GTPγS binding test, mGluR3; format: biochemical; settings: inhibition of glutamate (1 μM)-stimulated [35S]GTPγS specific binding, CHO cell membranes
Protocol: (§1) Test 1 [^35S]GTPγS binding test
(§2) CHO cells stably expressing human metabotropic glutamate receptors mGluR2 and mGluR3 were cultured at 37° C. under 5% CO2 using a Dulbecco's modified Eagle medium [1% proline, 1 mM sodium pyruvate, 1 mM succinic acid, 1 mM disodium succinate, 100 units/mL penicillin, 100 μg/mL streptomycin, 400 (mGluR2) or 300 (mGluR3) μg/mL hygromycin B, 2 mM L-glutamine (added just before use)] containing 10% dialyzed fetal bovine serum. The cells in a confluent state were washed with PBS(−), then dissociated using a cell scraper, and centrifuged at 1000 rpm for 5 minutes at 4° C. to recover the cells. The obtained pellet was suspended in a 20 mM HEPES buffer (pH 7.4) (mGluR2) or 20 mM HEPES buffer containing 1 mM EDTA (pH 7.4) (mGluR3), and the suspension was homogenized in a Teflon® homogenizer and then centrifuged at 48,000×g for 20 minutes at 4° C. to obtain a pellet again. The obtained pellet was subjected to two additional cycles of washing and centrifugation and then homogenized with the buffer described above to obtain a crude membrane fraction. The crude membrane fraction was diluted with a buffer for a binding test (final concentration: 20 mM HEPES, 100 mM NaCl, 10 mM MgCl2, 10 μM GDP, […], 0.1% BSA) (mGluR2) or (final concentration: 20 mM HEPES, 1 mM EDTA, 100 mM NaCl, 10 mM MgCl2, 10 μM GDP, 10 μg/mL saponin, 0.1% BSA) (mGluR3). To the crude membrane fraction containing 10 μg of membrane proteins/assay, Compounds (II)-1 to (II)-15 were each added, and the mixture was incubated at 30° C. for 20 minutes. Then, glutamate (final concentration: 20 (mGluR2) or 1 (mGluR3) μM) and [^35S]GTPγS (final concentration: 0.15 nM) were added thereto, and the mixture was incubated at 30° C. for 1 hour. The solution thus incubated was filtered by suction onto Whatman GF/C filter, and the filter was washed with 1000 μL of an ice-cooled 20 mM HEPES buffer (pH 7.4) (mGluR2) or 20 mM HEPES buffer containing 1 mM EDTA (pH 7.4) (mGluR3). A scintillation cocktail was added to the obtained filter, and the membrane binding radioactivity was measured using a liquid scintillation counter. The residual radioactivity in the absence of glutamate was defined as nonspecific binding, and the difference from the residual radioactivity in the presence of glutamate was defined as specific binding. From the percent inhibition of specific binding at varying concentrations of Compounds (II)-1 to (II)-15, an inhibition curve was obtained using nonlinear analysis. The concentrations at which Compounds (II)-1 to (II)-15 inhibited 50% of specific binding (IC50) were calculated from the inhibition curve.

mGlu2 receptor = mGlu2 receptor (Homo sapiens (Human), UniProt Q14416); settings: reported in literature; cited from earlier work
Chain of mGlu2 receptor (Q14416 19-872): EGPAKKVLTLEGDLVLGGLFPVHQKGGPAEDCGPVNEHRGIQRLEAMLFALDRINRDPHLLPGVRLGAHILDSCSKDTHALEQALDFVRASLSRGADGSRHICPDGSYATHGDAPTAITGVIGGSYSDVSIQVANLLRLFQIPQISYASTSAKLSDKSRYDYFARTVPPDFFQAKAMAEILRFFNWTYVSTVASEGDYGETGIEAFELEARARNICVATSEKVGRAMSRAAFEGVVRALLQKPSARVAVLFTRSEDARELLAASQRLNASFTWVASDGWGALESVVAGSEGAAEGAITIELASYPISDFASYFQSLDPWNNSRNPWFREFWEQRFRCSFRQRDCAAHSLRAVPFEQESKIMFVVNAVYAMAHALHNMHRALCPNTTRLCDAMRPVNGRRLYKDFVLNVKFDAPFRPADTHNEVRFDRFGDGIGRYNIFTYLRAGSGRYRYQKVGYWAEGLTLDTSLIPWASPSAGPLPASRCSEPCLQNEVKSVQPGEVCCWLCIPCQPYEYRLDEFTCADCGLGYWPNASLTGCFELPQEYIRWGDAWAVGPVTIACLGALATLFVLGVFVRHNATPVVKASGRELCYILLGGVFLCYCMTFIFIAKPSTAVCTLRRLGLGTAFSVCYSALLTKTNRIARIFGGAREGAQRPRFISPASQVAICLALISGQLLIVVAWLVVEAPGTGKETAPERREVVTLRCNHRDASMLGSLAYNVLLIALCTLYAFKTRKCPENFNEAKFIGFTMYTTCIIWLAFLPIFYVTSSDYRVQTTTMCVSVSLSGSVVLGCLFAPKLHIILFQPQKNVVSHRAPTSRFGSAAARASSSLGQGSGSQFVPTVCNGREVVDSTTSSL

[2] = target: human metabotropic glutamate receptor mGluR2 (Homo sapiens (Human), UniProt Q14416); assay: [35S]GTPγS binding test, mGluR2; format: biochemical; settings: inhibition of glutamate (20 μM)-stimulated [35S]GTPγS specific binding, CHO cell membranes
Chain of human metabotropic glutamate receptor mGluR2 (Q14416 19-872): as above
Protocol: as §1, §2

[3] = Stability test in solution (pH 1.2 and pH 6.5); format: physicochemical; settings: 1 hour; for Compound's percent residue (%) pH 1.2: hydrochloric acid solution pH 1.2, 37° C.
Protocol: Test 2: Stability Test in Solution
A test to determine the stability of Inventive Compounds (I-A) or (I) in a hydrochloric acid solution (pH 1.2) and 20 mM phosphate buffer (pH 6.5) was conducted in accordance with the following method.
A compound was dissolved in a hydrochloric acid solution (pH 1.2) containing hydrochloric acid and sodium chloride or a 20 mM phosphate buffer (pH 6.5) containing disodium hydrogenphosphate, sodium dihydrogenphosphate and sodium chloride to prepare a solution with a concentration of about 50 ng/mL (near the saturated concentration when the compound was not dissolved). The solution was incubated at 37° C. for 1 hour and the compound's concentration before and after the incubation was quantified by high-performance liquid chromatography to calculate the percent residue of the compound. Compounds having low solubility were assessed as being not applicable.
The percent residues of representative compounds in the hydrochloric acid solution (pH 1.2) and the 20 mM phosphate buffer (pH 6.5) are shown in the following Table 2.

rats = settings: 1 mg/kg; cited from earlier work
mGlu3 receptor = mGlu3 receptor (Homo sapiens (Human), UniProt Q14832); settings: reported in literature; cited from earlier work
Chain of mGlu3 receptor (Q14832 23-879): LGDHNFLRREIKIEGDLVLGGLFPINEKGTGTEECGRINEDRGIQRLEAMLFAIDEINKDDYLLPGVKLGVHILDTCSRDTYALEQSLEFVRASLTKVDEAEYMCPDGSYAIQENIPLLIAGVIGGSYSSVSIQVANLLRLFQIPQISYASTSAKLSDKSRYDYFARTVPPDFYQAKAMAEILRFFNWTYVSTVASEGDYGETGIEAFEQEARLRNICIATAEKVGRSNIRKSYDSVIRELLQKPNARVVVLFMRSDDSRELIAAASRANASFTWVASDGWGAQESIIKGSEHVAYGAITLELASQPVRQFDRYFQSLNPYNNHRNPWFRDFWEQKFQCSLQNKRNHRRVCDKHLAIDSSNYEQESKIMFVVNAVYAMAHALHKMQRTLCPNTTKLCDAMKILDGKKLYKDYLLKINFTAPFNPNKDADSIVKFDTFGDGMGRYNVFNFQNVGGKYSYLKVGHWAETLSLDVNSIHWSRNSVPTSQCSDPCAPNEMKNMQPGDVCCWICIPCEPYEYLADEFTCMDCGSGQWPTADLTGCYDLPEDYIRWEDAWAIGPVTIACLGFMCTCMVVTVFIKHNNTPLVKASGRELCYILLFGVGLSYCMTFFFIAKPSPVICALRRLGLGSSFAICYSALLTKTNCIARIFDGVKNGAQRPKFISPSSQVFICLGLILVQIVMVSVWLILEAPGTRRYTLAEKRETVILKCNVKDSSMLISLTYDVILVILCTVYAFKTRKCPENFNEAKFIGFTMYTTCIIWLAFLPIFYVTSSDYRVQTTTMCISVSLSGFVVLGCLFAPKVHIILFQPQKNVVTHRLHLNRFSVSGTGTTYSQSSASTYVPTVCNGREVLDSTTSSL

mice = settings: cited from earlier work

Chain of human metabotropic glutamate receptor mGluR3 (Q14832 23-879): as above

IC50 [1] | IC50 [2] | SMILES | other results
5.04 nM | 5.22 nM | COc1cc([C@@H](C)O[C@@H]2C[C@@H]3[C@H]([C@]2(N)C(=O)O)[C@@]3(F)C(=O)O)ccc1F [Compound (II)-4, (1R,2R,3R,5R,6R)-2-amino-6-fluoro-3-[(1R)-1-(4-fluoro-3-methoxyphenyl)ethoxy]bicyclo[3.1.0]hexane-2,6-dicarboxylic acid] | –
279 nM | 23.7 nM | N[C@]1(C(=O)O)[C@H]2[C@@H](C[C@H]1OCc1ccc(C(F)(F)F)cc1)[C@]2(F)C(=O)O [Compound (II)-5, (1R,2R,3R,5R,6R)-2-amino-6-fluoro-3-{[4-(triflouromethyl)phenyl]methoxy}bicyclo[3.1.0]hexane-2,6-dicarboxylic acid] | –
75.5 nM | 27.8 nM | N[C@]1(C(=O)O)[C@H]2[C@@H](C[C@H]1OCc1cccc(F)c1)[C@]2(F)C(=O)O [Compound (II)-6, (1R,2R,3R,5R,6R)-2-amino-6-fluoro-3-[(3-fluorophenyl)methoxy]bicyclo[3.1.0]hexane-2.6-dicarboxylic acid] | –
32.3 nM | 18.6 nM | N[C@]1(C(=O)O)[C@H]2[C@@H](C[C@H]1OCc1cccc(Cl)n1)[C@]2(F)C(=O)O [Compound (II)-8, (1R,2R,3R,5R,6R)-2-amino-3-[(6-chloropyridin-2-yl)methoxy]-6-fluorobicyclo[3.0.1]hexane-2,6-dicarboxylic acid] | –
97.6 nM | 62.2 nM | N[C@]1(C(=O)O)[C@H]2[C@@H](C[C@H]1OC1CCCC1)[C@]2(F)C(=O)O [Compound (II)-9, (1R,2R,3R,5R,6R)-2-amino-3-(cyclopentyloxy)-6-fluorobicyclo[3.1.0]hexane-2,6-dicarboxylic acid] | –
50.6 nM | 49.7 nM | N[C@]1(C(=O)O)[C@H]2[C@@H](C[C@H]1OCc1ccc(Cl)nc1)[C@]2(F)C(=O)O [Compound (II)-10, (1R,2R,3R,5R,6R)-2-amino-3-[(6-chloropyridin-3-yl)methoxy]-6-fluorobicyclo[3.1.0]hexane-2,6-dicarboxylic acid] | –
12.4 nM | 28.4 nM | N[C@]1(C(=O)O)[C@H]2[C@@H](C[C@H]1OCc1ccc(Cl)cn1)[C@]2(F)C(=O)O [Compound (II)-11, (1R,2R,3R,5R,6R)-2-amino-3-[(5-chloropyridin-2-yl)methoxy]-6-fluorobicyclo[3.1.0]hexane-2,6-dicarboxylic acid] | –
54.4 nM | 24.6 nM | Cc1ccc(CO[C@@H]2C[C@@H]3[C@H]([C@]2(N)C(=O)O)[C@@]3(F)C(=O)O)cc1 [Compound (II)-12, (1R,2R,3R,5R,6R)-2-amino-6-fluoro-3-[(4-methylphenyl)methoxy]bicyclo[3.1.0]hexane-2.6-dicarboxylic acid] | –
4.35 nM | 37.3 nM | N[C@]1(C(=O)O)[C@H]2[C@@H](C[C@H]1OCc1cc[nH]c(=O)c1)[C@]2(F)C(=O)O [Compound (II)-13, (1R,2R,3R,5R,6R)-2-amino-6-fluoro-3-[(2-oxo-1,2-dihycropyridin-4-yl)methoxy]bicyclo[3.1.0]hexane-2.6-dicarboxylic acid] | –
15.2 nM | 30.1 nM | N[C@]1(C(=O)O)[C@H]2[C@@H](C[C@H]1OCc1ccc(F)c(F)c1)[C@@H]2C(=O)O [Compound (II)-14, (1S,2R,3R,5R,6S)-2-amino-3-[(3,4-difluorophenyl)methoxy]bicyclo[3.1.0]hexane-2,6-dicarboxylic acid] | –
60.5 nM | 32.7 nM | N[C@]1(C(=O)O)[C@H]2[C@@H](C[C@H]1OCc1ccc(F)cc1)[C@@H]2C(=O)O [Compound (II)-15, (1S,2R,3R,5R,6S)-2-amino-3-[(4-fluorophenyl)methoxy]bicyclo[3.1.0]hexane-2,6-dicarboxylic acid] | –
– | – | C[C@@H](OC(=O)C12CC3CC(CC(C3)C1)C2)OC(=O)[C@@]1(N)[C@H]2[C@@H](C[C@H]1OCc1ccc(F)cc1)[C@@H]2C(=O)O [Example 38, (1S,2R,3R,5R,6S)-2-amino-3-[(4-fluorophenyl)methoxy]-2-({(1S)-1-[(tricyclo[3.3.1.1^3,7]decane-1-carbonyl)oxy]ethoxy}carbonyl)bicyclo[3.1.0]hexane-6-carboxylic acid] | Compound's percent residue (%) pH 6.5 ([3]; 20 mM phosphate buffer pH 6.5, 37° C.): 94%; Compound's percent residue (%) pH 1.2 [3]: 97%
– | – | CC(C)[C@@H]1CC[C@@H](C)C[C@H]1OC(=O)O[C@H](C)OC(=O)[C@@]1(N)[C@H]2[C@@H](C[C@H]1OCc1ccc(F)cc1)[C@@H]2C(=O)O [Example 39, (1S,2R,3R,5R,6S)-2-amino-3-[(4-fluorophenyl)methoxy]-2-({(1R)-1-[({[(1R,2S,5R)-5-methyl-2-(propan-2-yl)cyclohexyl]oxy}carbonyl)oxy]ethoxy}carbonyl)bicyclo[3.1.0]hexane-6-carboxylic acid] | Compound's percent residue (%) pH 1.2 [3]: 97%
– | – | N[C@]1(C(=O)O)[C@H]2[C@@H](C[C@H]1OCc1ccc(Cl)c(Cl)c1)[C@]2(F)C(=O)O [MGS0039] | antagonistic activity (mGlu2 receptor) (mGlu2 receptor): 20 nM; immobility time in the forced swimming test (rats): sufficient to suppress immobility time; antagonistic activity (mGlu3 receptor) (mGlu3 receptor): 24 nM; immobility time in the tail suspension test (mice): shortens immobility time

SMILES | IC50 [1] | IC50 [2] | other results
N[C@]1(C(=O)O)[C@H]2[C@@H](C[C@H]1OCc1ccc(F)cc1)[C@]2(F)C(=O)O [Compound (II)-1, (1R,2R,3R,5R,6R)-2-amino-6-fluoro-3-[(4-fluorophenyl)methoxy]bicyclo[3.1.0]hexane-2,6-dicarboxylic acid] | 36.4 nM | 36.1 nM | antagonistic activity (mGlu2 receptor) (mGlu2 receptor): ≤ 500 nM
N[C@]1(C(=O)O)[C@H]2[C@@H](C[C@H]1OCc1ccc(F)c(F)c1)[C@]2(F)C(=O)O [Compound (II)-2, (1R,2R,3R,5R,6R)-2-amino-3-[(3,4-difluorophenyl)methoxy]-6-fluorobicyclo[3.1.0]hexane-2,6-dicarboxylic acid] | 14.8 nM | 18.8 nM | antagonistic activity (mGlu2 receptor) (mGlu2 receptor): ≤ 500 nM
CCCO[C@@H]1C[C@@H]2[C@H]([C@]1(N)C(=O)O)[C@@]2(F)C(=O)O [Compound (II)-3, (1R,2R,3R,5R,6R)-2-amino-6-fluoro-3-propoxybicyclo[3.1.0]hexane-2,6-dicarboxylic acid] | 321 nM | 75.1 nM | antagonistic activity (mGlu2 receptor) (mGlu2 receptor): ≤ 500 nM
CC(C)CCO[C@@H]1C[C@@H]2[C@H]([C@]1(N)C(=O)O)[C@@]2(F)C(=O)O [Compound (II)-7, (1R,2R,3R,5R,6R)-2-amino-6-fluoro-3-(3-methylbutoxy)bicyclo[3.1.0]hexane-2,6-dicarboxylic acid] | 173 nM | 98.8 nM | –
